The target in experiment [1] is T1, CDK9/CycT1 (Homo sapiens, UniProt P50750).
T1 construct: Recombinant full-length His-tagged human CDK9 and CycT1; His; purchased Invitrogen PV4131; host or cells: insect cells
In words: CDK9/CycT1 high ATP kinase assay (TR-FRET, Method 1b). The experiment is classed as biochemical. The following applies: for IC50: Method 1b, 2 mM ATP; for Selectivity high ATP CDK9 over high ATP CDK2: IC50 (high ATP CDK2)/IC50 (high ATP CDK9): Methods 1b and 2b, minimal values where CDK9 IC50 is at the assay limit. A general note: Time-resolved FRET reads energy transfer from a long-lived donor to a nearby acceptor.

Experiment [2] has as its system HeLa-MaTu-ADR cells. In words: Proliferation assay HeLa-MaTu-ADR. The format is cell-based, human. The following applies: 4 days, crystal violet, read-out: Inhibition of HeLa-MaTu-ADR cell proliferation IC50.
The subject of experiment [3] is NCI-H460 cells. In words: Proliferation assay NCI-H460. The format is cell-based, human. The following applies: 4 days, crystal violet, read-out: Inhibition of NCI-H460 cell proliferation IC50.
The test system of experiment [4] is Caco-2 cells. The experiment is described as follows: Proliferation assay Caco-2. The experiment is classed as cell-based, human. The following applies: 4 days, crystal violet, read-out: Inhibition of Caco-2 cell proliferation IC50.

Like-named read-outs stand apart in the source and are kept apart here.

T1 sequence (P50750 whole entry): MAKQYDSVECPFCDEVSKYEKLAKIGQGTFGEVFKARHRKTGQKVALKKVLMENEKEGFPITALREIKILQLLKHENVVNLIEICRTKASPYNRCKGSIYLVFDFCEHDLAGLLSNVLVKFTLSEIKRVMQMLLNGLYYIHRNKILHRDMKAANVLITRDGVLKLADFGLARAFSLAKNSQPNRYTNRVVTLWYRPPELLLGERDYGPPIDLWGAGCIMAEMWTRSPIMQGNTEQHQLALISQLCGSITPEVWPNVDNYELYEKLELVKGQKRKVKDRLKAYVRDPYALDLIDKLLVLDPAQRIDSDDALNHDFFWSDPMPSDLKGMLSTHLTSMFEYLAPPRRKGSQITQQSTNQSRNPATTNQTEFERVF
T1 sequence (O60563 whole entry partner): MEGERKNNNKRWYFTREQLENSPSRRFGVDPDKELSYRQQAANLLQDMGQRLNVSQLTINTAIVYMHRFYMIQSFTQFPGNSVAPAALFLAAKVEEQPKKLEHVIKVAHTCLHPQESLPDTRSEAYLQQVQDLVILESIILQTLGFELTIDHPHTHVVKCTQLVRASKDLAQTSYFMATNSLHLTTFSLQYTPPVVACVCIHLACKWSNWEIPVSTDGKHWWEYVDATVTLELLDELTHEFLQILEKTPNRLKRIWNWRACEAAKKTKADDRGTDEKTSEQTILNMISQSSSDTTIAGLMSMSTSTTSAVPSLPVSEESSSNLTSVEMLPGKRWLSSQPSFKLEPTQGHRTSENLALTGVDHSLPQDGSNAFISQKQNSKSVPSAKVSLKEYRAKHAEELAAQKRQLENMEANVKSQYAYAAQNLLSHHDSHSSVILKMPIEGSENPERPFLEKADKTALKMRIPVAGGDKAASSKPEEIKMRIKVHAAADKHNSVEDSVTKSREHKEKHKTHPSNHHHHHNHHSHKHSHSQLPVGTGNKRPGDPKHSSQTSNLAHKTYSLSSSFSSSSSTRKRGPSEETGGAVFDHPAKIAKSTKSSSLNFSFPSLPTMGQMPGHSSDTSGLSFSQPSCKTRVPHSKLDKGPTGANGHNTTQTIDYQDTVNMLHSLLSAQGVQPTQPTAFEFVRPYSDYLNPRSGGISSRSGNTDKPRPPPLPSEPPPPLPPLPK

For the compound `NCCS(=O)(=O)Cc1cc2nc(c1)OCCCOc1cc(F)ccc1-c1cc(ncc1F)N2` [Example 26, 2-({[15,19-difluoro-3,4-dihydro-2H,11H-10,6-(azeno)-12,16-(metheno)-1,5,11,13-benzodioxadiazacyclooctadecin-8-yl]methyl}sulfonyl)ethanamine], the IC50 turned out to be 3.4 nM in experiment [1]; 298 nM in experiment [2] (Homo sapiens, 96 h); 395 nM in experiment [3] (Homo sapiens, NCI-H460, 96 h); 329 nM in experiment [4] (Homo sapiens, Caco-2, 96 h). For the same compound, the “Selectivity high ATP CDK9 over high ATP CDK2: IC50 (high ATP CDK2)/IC50 (high ATP CDK9)” value in experiment [1] came out at 13.0.

Consider “({[15,19-difluoro-3,4-dihydro-2H,11H-10,6-(azeno)-12,16-(metheno)-1,5,11,13-benzodioxadiazacyclooctadecin-8-yl]methyl}sulfonyl)acetic acid [Example 27]”, for which the IC50 in experiment [1] stood at 1.7 nM; in experiment [2], 1280 nM; in experiment [3], 3040 nM; in experiment [4], 2100 nM. Moreover, the “Selectivity high ATP CDK9 over high ATP CDK2: IC50 (high ATP CDK2)/IC50 (high ATP CDK9)” value in experiment [1] was determined as 3.7.

The record behind these values is patent US9963464B2, “Macrocyclic compounds” (Bayer Pharma Aktiengesellschaft, priority 2014, dated 2018).
